Experimental data from PMC3748936 (Chembiochem : a European journal of chemical biology, 2012).

How the values were obtained:
[1] = target: T1, E. coli GMPS (Escherichia coli, UniProt P04079); details: previous report; cited from earlier work
T1 sequence (P04079 1-525): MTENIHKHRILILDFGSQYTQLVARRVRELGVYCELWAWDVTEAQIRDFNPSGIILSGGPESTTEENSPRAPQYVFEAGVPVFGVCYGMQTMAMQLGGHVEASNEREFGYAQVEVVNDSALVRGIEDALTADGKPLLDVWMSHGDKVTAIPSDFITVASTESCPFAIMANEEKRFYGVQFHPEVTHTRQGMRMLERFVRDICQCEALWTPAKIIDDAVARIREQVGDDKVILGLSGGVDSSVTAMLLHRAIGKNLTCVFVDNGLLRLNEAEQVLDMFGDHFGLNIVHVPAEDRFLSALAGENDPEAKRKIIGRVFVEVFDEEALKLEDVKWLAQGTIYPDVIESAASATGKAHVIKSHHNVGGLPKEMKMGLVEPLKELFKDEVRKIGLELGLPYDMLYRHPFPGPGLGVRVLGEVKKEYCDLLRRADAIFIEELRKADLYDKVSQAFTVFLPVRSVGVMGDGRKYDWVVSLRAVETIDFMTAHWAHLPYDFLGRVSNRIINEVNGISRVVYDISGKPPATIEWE

[2] = target: T1, E. coli GMPS; experiment: GMPS inhibition of D-XMP amination, UV-Vis analysis; format: biochemical
[3] = target: GMPS; details: previous report; cited from earlier work
[4] = target: T1, E. coli GMPS; experiment: HPLC-based assay of GMPS enzymatic reaction products; format: biochemical
[5] = target: T1, E. coli GMPS; experiment: Continuous UV spectrophotometric assay of GMPS; format: biochemical; details: UV-Vis analysis, triplicate, average +/- S.D.
[6] = test system: GMPS isolated from rat Walker sarcoma cells; details: cited from earlier work
[7] = substrate: O=c1[nH]c(=O)c2ncn([C@@H]3O[C@H](COP(=O)(O)O)[C@@H](O)[C@H]3O)c2[nH]1; experiment: Continuous UV spectrophotometric assay of GMPS; format: biochemical, E. coli; details: other: UV-Vis analysis; triplicate, average +/- S.D.

## O=c1[nH]c(=O)c2ncn([C@@H]3O[C@H](COP(=O)(O)O)[C@@H](O)[C@H]3O)c2[nH]1 [D-XMP, xanthosine 5′-monophosphate]
[1]
  kcat (turnover number): 9.4×10^–2 s^–1

## OC[C@H]1O[C@@H](n2cnc3c(O)nc(O)nc32)[C@H](O)[C@@H]1O [D-Xanthosine, D-xanthosine]
[2]
  GMPS inhibition (in words): neither molecule inhibited GMPS

## C=C1O[C@@](CO)(n2cnc3c(N)ncnc32)[C@H](O)[C@@H]1O [Decoyinine, decoyinine]
[2]
  Ki: 54.1 ± 14.5 µM
[3]
  Ki: 26 µM

## O=c1[nH]c(=O)c2ncn([C@H]3O[C@@H](COP(=O)(O)O)[C@H](O)[C@@H]3O)c2[nH]1 [L-XMP]
[4]; HPLC analysis
  Km fold higher than the natural enantiomer D-XMP: ~ 10 fold
  kcat fold difference in turnover number compared to D-XMP: 15,000 fold
  kcat/Km (specific activity) fold decrease from the natural enantiomer: 140,000 fold
[4]; incubation with GMPS and NH4OAc
  conversion of substrate by GMPS (HPLC peak, MS confirmed): converted to L-GMP by GMPS
[5]; substrate turnover to GMP
  kcat: 3.1 (± 0.7) × 10^−6 s^−1
[5]
  Km: 330 ± 105 µM
[2]; from Ki values
  fold more potent than decoyinine inhibition against E. coli GMPS: ~7 fold

## O=c1[nH]c(=O)c2ncn(C3OC(CO)C(O)C3O)c2[nH]1 [L-Xanthosine, L-xanthosine]
[2]
  GMPS inhibition (in words): neither molecule inhibited GMPS

## NC(=O)c1ncn([C@@H]2O[C@H](CO)[C@@H](O)[C@H]2O)c1O [Mizoribine]
[2]
  Ki: 1.8 ± 0.7 µM
[6]
  Ki: 10 µM

B1: E. coli GMPS (Escherichia coli K-12) (protein)
chain: T1 sequence (P04079 1-525)
[7]
  Km: 24.9 ± 6.6 µM
  kcat: 0.043 ± 0.007 s⁻¹
  kcat/Km: 1700 M⁻¹ s⁻¹
